Experimental data from PubChem BioAssay AID588609 (Sanford-Burnham Center for Chemical Genomics, 2011).
The source made the active and inactive calls.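 How the source made its calls: active means compounds whose averaged half-maximal activating concentration falls below 100 micromolar; inactive means the rest.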

Target: intestinal alkaline phosphatase (Alpi), mouse
Assay: murine Alpi activation by analogs – biochemical, luminescence, set 2, SAR follow-up (AID 588609)
Details: purified muIAP, CDP-Star luminescence, 30 min

Compound | EC50
CN(C)S(=O)(=O)c1ccc(NC(=S)NCC(c2ccccc2)c2ccccc2)cc1 | 13.4 µM
CN(C)S(=O)(=O)c1ccc(NC(=S)NC(c2ccccc2)c2ccccc2)cc1 | 3.23 µM
CN(C)CCCNC(=S)Nc1cccc(S(=O)(=O)N(C)C)c1 | > 100 µM (inactive)
COc1ccc(CNC(=S)Nc2ccc(S(=O)(=O)N3CCCCC3)cc2)cc1OC | 43.7 µM
O=C(NC(=S)Nc1cc(S(=O)(=O)N2CCOCC2)ccc1O)c1ccco1 | > 100 µM (inactive)
CN(C)S(=O)(=O)c1cccc(NC(=S)NC(C)(C)CC(C)(C)C)c1 | 32.1 µM
CN(CCc1ccccc1)C(=S)Nc1cccc(S(=O)(=O)N(C)C)c1 | > 100 µM (inactive)
CC1CCN(S(=O)(=O)c2ccc(NC(=S)NCCC(c3ccccc3)c3ccccc3)cc2)CC1 | 12.9 µM
O=S(=O)(c1ccc(NC(=S)NCC(c2ccccc2)c2ccccc2)cc1)N1CCCCC1 | 5.37 µM
CN(C)S(=O)(=O)c1cccc(NC(=S)NCCCN2CCCC2=O)c1 | > 100 µM (inactive)
CCN(CC)S(=O)(=O)c1ccc(NC(=S)NCC(c2ccccc2)c2ccccc2)cc1 | 19.5 µM
O=S(=O)(c1ccc(NC(=S)NCc2cccc(F)c2)cc1)N1CCCCC1 | 28.5 µM
COc1ccc(CCNC(=S)Nc2ccc(S(=O)(=O)N3CCCCC3)cc2)cc1OC | 60.5 µM
CN(C)S(=O)(=O)c1ccc(NC(=S)NCCc2cccc(O)c2)cc1 | > 100 µM (inactive)
CCCCCCC(C)NC(=S)Nc1cc(S(=O)(=O)N(C)C)ccc1C (stereo not given) | 12.3 µM
CN(C)S(=O)(=O)c1cccc(NC(=S)NCCc2cccc(Br)c2)c1 | 56.9 µM
CN(C)S(=O)(=O)c1cccc(NC(=S)NC(c2ccccc2)c2ccccc2)c1 | 26 µM
CC1CC(NC(=S)Nc2cccc(S(=O)(=O)N(C)C)c2)CC(C)N1 (stereo not given) | > 100 µM (inactive)
COc1cccc(CCNC(=S)Nc2cccc(S(=O)(=O)N(C)C)c2)c1 | 53.7 µM
CN(C)S(=O)(=O)c1cccc(NC(=S)NCCc2cccc(O)c2)c1 | > 100 µM (inactive)
O=S(=O)(c1ccc(NC(=S)NCCC(c2ccccc2)c2ccccc2)cc1)N1CCCCC1 | 44.5 µM
CN(C)S(=O)(=O)c1cccc(NC(=S)NCc2ccc(Cl)cc2)c1 | 12.2 µM
CC(CNC(=S)Nc1cccc(S(=O)(=O)N(C)C)c1)N1CCN(c2ccccc2)CC1 (stereo not given) | 87.5 µM
O=c1c2ccccc2[nH]c(=S)n1-c1cccc(S(=O)(=O)N2CCCC2)c1 | > 100 µM (inactive)
CN(C)S(=O)(=O)c1cccc(NC(=S)NCCC(c2ccccc2)c2ccccc2)c1 | 7.44 µM
CN(C)S(=O)(=O)c1ccc(NC(=S)NCCC(c2ccccc2)c2ccccc2)cc1 | 20.1 µM
CN(CCc1ccccn1)C(=S)Nc1cccc(S(=O)(=O)N(C)C)c1 | > 100 µM (inactive)

More lines, now with the values ahead:

EC50 | Compound
51.6 µM | CN(C)S(=O)(=O)c1cccc(NC(=S)NCCc2ccccc2)c1
67.1 µM | COc1ccccc1CNC(=S)Nc1ccc(S(=O)(=O)N(C)C)cc1
48.5 µM | CN(C)S(=O)(=O)c1ccc(NC(=S)NCCc2cccc(Br)c2)cc1
> 100 µM (inactive) | CN(C)S(=O)(=O)c1cccc(NC(=S)NCCN2CCCC2)c1
44.7 µM | CC(CCc1ccccc1)NC(=S)Nc1cccc(S(=O)(=O)N(C)C)c1 (stereo not given)
76.9 µM | CCN(CC)S(=O)(=O)c1ccc(NC(=S)NCCC(c2ccccc2)c2ccccc2)cc1
25.9 µM | Cc1ccc(CNC(=S)Nc2cccc(S(=O)(=O)N(C)C)c2)cc1
7.3 µM | CC1CCN(S(=O)(=O)c2ccc(NC(=S)NC(c3ccccc3)c3ccccc3)cc2)CC1
> 100 µM (inactive) | Cc1ccc(S(=O)(=O)N(C)C)cc1NC(=S)NC(=O)C12CC3CC(CC(C3)C1)C2
47.7 µM | Cc1ccccc1CNC(=S)Nc1ccc(S(=O)(=O)N(C)C)cc1
> 100 µM (inactive) | CCN(CC)CCCNC(=S)Nc1cccc(S(=O)(=O)N(C)C)c1
> 100 µM (inactive) | CN(C)S(=O)(=O)c1cccc(NC(=S)NCCc2ccc(F)cc2)c1
20.2 µM | CN(C)S(=O)(=O)c1cccc(NC(=S)NCCc2cccc(F)c2)c1
> 100 µM (inactive) | Cc1ccc(S(=O)(=O)N(C)C)cc1NC(=S)NC1CCN(Cc2ccccc2)CC1
60.6 µM | COc1ccc(CCNC(=S)Nc2ccc(S(=O)(=O)N3CCCCC3)cc2)cc1
> 100 µM (inactive) | O=C(NC(=S)Nc1cc(S(=O)(=O)N2CCOCC2)ccc1N1CCOCC1)c1ccco1
36.1 µM | O=S(=O)(c1ccc(NC(=S)NCc2cccc(Cl)c2)cc1)N1CCCCC1
43.9 µM | CCN(CC)S(=O)(=O)c1ccc(NC(=S)NC(c2ccccc2)c2ccccc2)cc1
> 100 µM (inactive) | O=C(CCc1ccccc1)NC(=S)Nc1cccc(S(=O)(=O)N2CCCC2)c1

EC50 | Compound
15.3 µM | CN(C)S(=O)(=O)c1cccc(NC(=S)NCC(c2ccccc2)c2ccccc2)c1
6.81 µM | CC1CCN(S(=O)(=O)c2ccc(NC(=S)NCC(c3ccccc3)c3ccccc3)cc2)CC1
51.5 µM | Cc1ccc(S(=O)(=O)N(C)C)cc1NC(=S)NC(C)CCCC(C)C (stereo not given)
4.38 µM | O=S(=O)(c1ccc(NC(=S)NC(c2ccccc2)c2ccccc2)cc1)N1CCCCC1
> 100 µM (inactive) | CN(C)S(=O)(=O)c1cccc(NC(=S)NCCC(=O)N2CCCC2)c1
73.2 µM | Cc1ccc(CNC(=S)Nc2ccc(S(=O)(=O)N(C)C)cc2)cc1
9.09 µM | O=S(=O)(c1ccc(NC(=S)NCC(c2ccccc2)c2ccccc2)cc1)N1CCCC1
45.1 µM | COc1cccc(CNC(=S)Nc2ccc(S(=O)(=O)N(C)C)cc2)c1
12.7 µM | O=S(=O)(c1ccc(NC(=S)NC(c2ccccc2)c2ccccc2)cc1)N1CCCC1
42.7 µM | Cc1ccc(S(=O)(=O)N(C)C)cc1NC(=S)NC(C)CCC(C)C (stereo not given)
86 µM | CN(C)S(=O)(=O)c1cccc(NC(=S)NCCc2ccc(Br)cc2)c1
> 100 µM (inactive) | Cc1ccc(C)c(NC(=S)Nc2ccc(S(=O)(=O)N3CCCCC3)cc2)c1
59.3 µM | O=S(=O)(c1ccc(NC(=S)NCCC(c2ccccc2)c2ccccc2)cc1)N1CCCC1
> 100 µM (inactive) | CN(C)CC(C)(C)CNC(=S)Nc1cccc(S(=O)(=O)N(C)C)c1
> 100 µM (inactive) | Cc1ccc(S(=O)(=O)N(C)C)cc1NC(=S)NCCCn1ccnc1
> 100 µM (inactive) | CN(C)S(=O)(=O)c1cccc(NC(=S)NCCCn2ccnc2)c1
> 100 µM (inactive) | CN(C)S(=O)(=O)c1ccc(NC(=S)NCCc2ccccc2)cc1
> 100 µM (inactive) | CCN(CC)c1ccc(C(=O)NC(=S)Nc2cc(S(=O)(=O)N3CCOCC3)ccc2-n2cncn2)cc1
> 100 µM (inactive) | CN(C)S(=O)(=O)c1ccc(NC(=S)NCCN2CCCC2)cc1
